Measured values: ChEMBL document CHEMBL5465560, “Selectivity Literature for EUbOPEN Chemogenomic Library” (2024)

Assays:
[1] = target: T1, Serine/threonine-protein kinase haspin (Homo sapiens) (UniProt Q8TF76); assay: Selectivity interaction (Kinase panel (DSF assay)) EUB0001558a GSG2
T1 sequence (whole entry): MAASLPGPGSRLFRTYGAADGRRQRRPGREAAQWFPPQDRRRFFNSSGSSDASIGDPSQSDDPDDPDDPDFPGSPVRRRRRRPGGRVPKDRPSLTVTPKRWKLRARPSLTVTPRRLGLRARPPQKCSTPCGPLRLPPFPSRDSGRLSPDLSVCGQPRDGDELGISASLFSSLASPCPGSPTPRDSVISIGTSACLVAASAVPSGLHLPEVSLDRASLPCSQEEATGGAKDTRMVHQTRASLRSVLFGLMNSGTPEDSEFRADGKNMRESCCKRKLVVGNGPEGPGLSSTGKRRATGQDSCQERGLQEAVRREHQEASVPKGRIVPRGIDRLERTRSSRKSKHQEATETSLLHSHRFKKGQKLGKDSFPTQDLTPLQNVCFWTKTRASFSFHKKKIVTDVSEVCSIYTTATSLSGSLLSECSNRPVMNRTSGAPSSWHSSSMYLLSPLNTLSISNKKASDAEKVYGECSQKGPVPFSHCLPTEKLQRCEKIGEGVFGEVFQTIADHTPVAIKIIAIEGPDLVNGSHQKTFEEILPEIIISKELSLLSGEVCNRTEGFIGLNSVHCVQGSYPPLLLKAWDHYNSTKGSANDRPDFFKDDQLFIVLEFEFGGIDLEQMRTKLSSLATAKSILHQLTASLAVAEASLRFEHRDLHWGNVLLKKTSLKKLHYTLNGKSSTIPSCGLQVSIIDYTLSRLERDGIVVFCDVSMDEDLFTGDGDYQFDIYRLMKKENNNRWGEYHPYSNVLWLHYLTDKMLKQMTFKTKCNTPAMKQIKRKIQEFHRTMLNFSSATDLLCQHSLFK

[2] = target: Ribosomal protein S6 kinase alpha-6 (Homo sapiens, UniProt Q9UK32); assay: Selectivity interaction (Upstate Kinase Profiler service (Millipore)) EUB0000056c RPS6KA6; conditions: at 1 µM
[3] = target: Ribosomal protein S6 kinase alpha-2 (Homo sapiens) (UniProt Q15349); assay: Selectivity interaction (KinomeScan (DiscoverX)) EUB0001079a RPS6KA2; conditions: at 1 µM
[4] = target: T2, Ephrin type-B receptor 3 (Homo sapiens) (UniProt P54753); assay: Selectivity interaction (KinomeScan (DiscoverX)) EUB0000666a EPHB3; conditions: at 10 µM
T2 sequence (whole entry): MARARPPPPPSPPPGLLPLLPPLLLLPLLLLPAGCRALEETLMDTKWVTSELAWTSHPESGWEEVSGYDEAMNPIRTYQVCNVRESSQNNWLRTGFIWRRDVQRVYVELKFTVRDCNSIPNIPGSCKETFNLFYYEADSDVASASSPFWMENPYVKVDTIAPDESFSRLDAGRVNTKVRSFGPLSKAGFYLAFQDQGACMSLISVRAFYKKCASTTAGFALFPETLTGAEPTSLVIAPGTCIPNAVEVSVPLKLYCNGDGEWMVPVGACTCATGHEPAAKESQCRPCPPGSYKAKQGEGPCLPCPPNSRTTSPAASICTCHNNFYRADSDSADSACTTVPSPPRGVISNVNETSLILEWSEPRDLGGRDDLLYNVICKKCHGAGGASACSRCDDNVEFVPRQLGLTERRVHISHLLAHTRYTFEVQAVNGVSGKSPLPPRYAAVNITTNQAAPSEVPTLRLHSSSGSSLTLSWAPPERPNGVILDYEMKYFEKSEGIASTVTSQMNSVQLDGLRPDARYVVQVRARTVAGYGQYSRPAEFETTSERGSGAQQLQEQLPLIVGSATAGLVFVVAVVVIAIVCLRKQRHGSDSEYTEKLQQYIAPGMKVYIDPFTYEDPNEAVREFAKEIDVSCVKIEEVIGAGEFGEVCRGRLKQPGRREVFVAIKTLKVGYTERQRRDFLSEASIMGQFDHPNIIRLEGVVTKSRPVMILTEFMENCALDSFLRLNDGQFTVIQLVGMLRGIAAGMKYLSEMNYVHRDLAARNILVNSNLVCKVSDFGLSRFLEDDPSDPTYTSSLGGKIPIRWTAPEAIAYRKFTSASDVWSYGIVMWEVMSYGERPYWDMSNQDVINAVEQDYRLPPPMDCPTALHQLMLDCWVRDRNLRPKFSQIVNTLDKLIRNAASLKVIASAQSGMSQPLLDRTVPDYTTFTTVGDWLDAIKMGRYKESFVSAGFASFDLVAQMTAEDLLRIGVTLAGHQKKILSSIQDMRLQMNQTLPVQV

[5] = target: Tyrosine-protein kinase CSK (Homo sapiens) (UniProt P41240); assay: Selectivity interaction (Kinase panel (Invitrogen)) EUB0000639a CSK; conditions: at 200 nM
[6] = target: Serine/threonine-protein kinase VRK2 (Homo sapiens) (UniProt Q86Y07); assay: Selectivity interaction (KinomeScan (DiscoverX)) EUB0001049a VRK2; conditions: at 1 µM
[7] = target: T3, Histone-lysine N-methyltransferase SETD7 (Homo sapiens) (UniProt Q8WTS6); assay: Selectivity interaction (Methyltransferase screen (radiometric assays, panel of 8 PRMTs, 21 protein lysine methyltransferases, 3 DNA methyltransferases, and one RNA methyltransferase)) EUB0000271b SETD7
T3 sequence (whole entry): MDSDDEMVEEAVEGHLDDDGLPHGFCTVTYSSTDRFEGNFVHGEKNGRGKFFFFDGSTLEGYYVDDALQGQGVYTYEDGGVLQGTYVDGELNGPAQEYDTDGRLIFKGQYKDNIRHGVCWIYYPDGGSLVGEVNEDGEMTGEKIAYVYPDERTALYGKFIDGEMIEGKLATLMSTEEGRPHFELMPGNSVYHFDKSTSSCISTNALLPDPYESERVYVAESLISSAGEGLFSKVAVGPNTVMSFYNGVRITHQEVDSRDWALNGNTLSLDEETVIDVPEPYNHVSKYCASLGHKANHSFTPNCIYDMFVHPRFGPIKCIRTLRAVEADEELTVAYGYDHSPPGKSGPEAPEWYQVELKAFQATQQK

Sequence of Tyrosine-protein kinase CSK (Homo sapiens) (P41240 2-450 limits assumed): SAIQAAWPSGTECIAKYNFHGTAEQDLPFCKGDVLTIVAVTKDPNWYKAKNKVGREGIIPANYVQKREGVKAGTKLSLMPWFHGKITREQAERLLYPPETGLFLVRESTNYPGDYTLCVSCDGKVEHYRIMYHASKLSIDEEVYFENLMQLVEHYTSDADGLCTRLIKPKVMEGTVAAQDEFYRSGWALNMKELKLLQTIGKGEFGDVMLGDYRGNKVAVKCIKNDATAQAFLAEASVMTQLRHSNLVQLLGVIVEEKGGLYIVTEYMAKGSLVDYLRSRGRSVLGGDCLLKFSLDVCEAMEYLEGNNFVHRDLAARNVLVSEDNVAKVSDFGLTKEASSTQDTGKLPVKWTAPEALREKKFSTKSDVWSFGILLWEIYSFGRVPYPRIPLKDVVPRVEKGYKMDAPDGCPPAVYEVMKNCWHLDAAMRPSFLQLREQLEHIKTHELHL
Sequence of Ribosomal protein S6 kinase alpha-2 (Homo sapiens) (Q15349 whole entry): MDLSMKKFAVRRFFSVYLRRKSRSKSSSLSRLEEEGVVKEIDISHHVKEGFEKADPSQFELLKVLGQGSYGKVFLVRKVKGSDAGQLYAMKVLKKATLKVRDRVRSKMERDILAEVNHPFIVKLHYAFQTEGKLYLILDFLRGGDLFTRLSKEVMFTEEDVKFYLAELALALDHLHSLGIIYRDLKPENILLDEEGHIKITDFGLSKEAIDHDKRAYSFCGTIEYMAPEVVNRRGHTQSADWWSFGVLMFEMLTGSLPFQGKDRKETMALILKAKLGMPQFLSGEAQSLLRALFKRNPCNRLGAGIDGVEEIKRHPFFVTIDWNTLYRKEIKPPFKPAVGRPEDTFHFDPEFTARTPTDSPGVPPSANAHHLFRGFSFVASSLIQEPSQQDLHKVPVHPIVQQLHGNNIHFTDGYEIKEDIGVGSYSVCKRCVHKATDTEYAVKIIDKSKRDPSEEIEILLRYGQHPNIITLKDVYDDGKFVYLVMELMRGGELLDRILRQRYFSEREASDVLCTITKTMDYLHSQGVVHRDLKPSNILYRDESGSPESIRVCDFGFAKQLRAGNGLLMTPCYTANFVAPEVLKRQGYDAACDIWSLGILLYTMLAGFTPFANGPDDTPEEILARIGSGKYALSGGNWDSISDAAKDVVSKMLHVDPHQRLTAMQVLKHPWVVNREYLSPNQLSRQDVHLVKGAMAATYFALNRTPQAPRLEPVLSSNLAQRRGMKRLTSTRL
Sequence of Ribosomal protein S6 kinase alpha-6 (Q9UK32 whole entry): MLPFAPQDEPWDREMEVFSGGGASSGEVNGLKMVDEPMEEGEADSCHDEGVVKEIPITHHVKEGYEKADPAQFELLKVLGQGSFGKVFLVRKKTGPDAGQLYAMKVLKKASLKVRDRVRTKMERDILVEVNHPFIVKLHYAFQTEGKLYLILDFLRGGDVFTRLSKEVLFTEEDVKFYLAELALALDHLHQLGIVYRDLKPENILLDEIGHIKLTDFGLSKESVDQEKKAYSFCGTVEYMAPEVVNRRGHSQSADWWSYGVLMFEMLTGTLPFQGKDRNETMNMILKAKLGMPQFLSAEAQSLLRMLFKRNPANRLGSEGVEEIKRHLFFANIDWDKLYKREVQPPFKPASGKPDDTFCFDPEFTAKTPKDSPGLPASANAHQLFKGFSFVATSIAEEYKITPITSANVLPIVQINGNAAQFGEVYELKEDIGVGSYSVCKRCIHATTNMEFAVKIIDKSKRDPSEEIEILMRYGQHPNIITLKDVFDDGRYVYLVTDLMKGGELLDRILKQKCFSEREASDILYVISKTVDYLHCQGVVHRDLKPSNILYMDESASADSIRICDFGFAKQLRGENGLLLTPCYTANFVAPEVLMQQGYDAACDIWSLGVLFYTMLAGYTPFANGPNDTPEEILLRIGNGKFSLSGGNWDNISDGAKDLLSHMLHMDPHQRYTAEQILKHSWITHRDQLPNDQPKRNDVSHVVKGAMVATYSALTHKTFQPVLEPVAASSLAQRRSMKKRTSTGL
Sequence of Serine/threonine-protein kinase VRK2 (Homo sapiens) (Q86Y07 whole entry): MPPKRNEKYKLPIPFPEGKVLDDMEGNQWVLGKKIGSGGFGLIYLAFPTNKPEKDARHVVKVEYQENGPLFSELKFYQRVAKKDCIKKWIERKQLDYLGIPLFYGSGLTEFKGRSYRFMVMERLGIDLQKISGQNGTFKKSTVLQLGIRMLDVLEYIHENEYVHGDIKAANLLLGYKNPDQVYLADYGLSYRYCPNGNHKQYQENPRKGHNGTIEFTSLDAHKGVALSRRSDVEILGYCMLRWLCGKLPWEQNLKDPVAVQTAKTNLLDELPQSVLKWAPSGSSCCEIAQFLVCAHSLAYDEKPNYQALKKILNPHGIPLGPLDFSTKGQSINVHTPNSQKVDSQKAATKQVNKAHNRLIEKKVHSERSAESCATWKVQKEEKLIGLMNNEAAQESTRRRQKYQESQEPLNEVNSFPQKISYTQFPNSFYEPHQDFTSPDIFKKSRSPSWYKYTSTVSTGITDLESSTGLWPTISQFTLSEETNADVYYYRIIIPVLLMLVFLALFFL

## CC(C)(O)[C@H](F)CN1Cc2cc(NC(=O)c3cnn4cccnc34)c(N3CCOCC3)cc2C1=O
[1]
  dTM: 0.4 K

## Cc1ccc(-c2ccc3c(ccc4sc5c(c43)NC[C@@H](C)NC5=O)n2)cn1
[2]
  % of inhibition: 38%

## Nc1cnc(N2CCc3cc(S(=O)(=O)Nc4c(F)cc(Cl)cc4F)cc(N4CCCC4=O)c32)nc1 [TP-020n]
[3]
  % of control: 100%

## O=C(NOC[C@H](O)CO)c1ccc(F)c(F)c1Nc1ccc(I)cc1F
[4]
  % of control: 89%

## CC[C@@H]1[C@H](F)C(=O)N[C@@H]1COc1nccc2cc(C(N)=O)c(OC)cc12 [ZIMLOVISERTIB]
[5]
  % of inhibition: 11.4%

## COc1cc(Nc2nc(C)cc(-c3cnn4nc(OC)ccc34)n2)cc(C(F)(F)F)c1
[6]
  % of control: 100%

## Cc1cc(C)cc([C@@H]2c3cc(C)ccc3NC(=O)CN2C(=O)c2ccc(Br)s2)c1
[7]; at 1 µM
  % of activity: 95.3%
[7]; at 10 µM
  % of activity: 95.7%
